Source: patent US4233309A, “Novel 1-substituted-3-acylpyrrole derivatives, platelet aggregation inhibitors containing them, as active ingredients, and processes for production of said derivatives” (Teijin Limited, priority 1977, dated 1980)
In brackets after ≈: the same amount, converted by molar mass. Where two headings read alike, the source gives them in different places.

Legend:
[1] = tested on: platelet aggregation (guinea pig PRP, extra vivo); assay: Inhibitory effect of compounds on platelet aggregation in extra vivo (Table 4); design: species or system Hartley-strain guinea pigs; conditions: Cavia porcellus, 10 mg/kg SC, 1 h after administration
[2] = tested on: platelet aggregation (guinea pig PRP, extra vivo); assay: as above; design: species or system Hartley-strain guinea pigs; conditions: Cavia porcellus, 100 mg/kg PO, 1 h after administration
Protocol: The effect of the compounds shown in Table 4 on platelet aggregation was assessed using guinea pig in extra vivo.
Each of the test compounds was dissolved in propylene glycol so that its concentration became 100 mg/ml (dosage corresponded to 100 mg/kg) and 30 mg/ml (dosage corresponded to 30 mg/kg). The drug solution was administered either orally or subcutaneously to Hartley-strain guinea pigs (3 per group) having a body weight of 300 to 350 g. As a control, propylene glycol was administered. One hour after the administration, citrated blood was taken out by cardiac puncture, and centrifuged to obtain PRP (see Example 67).
In the case of oral administration, the animals had been fasted overnight.
Into a quvett set in a holder of an aggregometer and prewarmed at 37° C. with stirring, was put 450 μl of the above PRP, and then 50 μl of an aggregating agent was added. The aggregation curve was recorded for an additional 3 minutes, and an increase in light transmittance through PRP after 3 minutes (TB) was recorded (see Example 67). As a control, an increase of transmittance of PRP taken from a guinea pig group administered with propylene glycol alone (TA) was recorded in the same way above. The percent inhibitions were calculated in accordance with the following equation. [formula]
As the aggregating agent, sodium arachidonate (a final concentraton of 0.03 mM) and a collagen suspension (a final concentration of 5 μg/ml) were used.
The percent inhibitions in the above table are averages of three guinea pigs. For details of the above extra vivo test about inhibition of platelet aggregation, the literature references described in Example 67 may be referred to.

Acute toxicity (Table 6) = format: in vivo; conditions: mouse, in vivo, mice, Litchfield-Wilcoxon, read-out: LD50 (50% lethal dose)
Protocol: (§1) ICR male mice with a body weight of 24 to 27 g (5 to 6 per group) were used. Each test compound was dissolved in propylene glycol in various concentrations, and administered orally (in a volume of 0.1 to 0.05 ml/10 g), subcutaneously (in a volume of 0.1 to 0.05 ml/10 g), or intraperitoneally (in a volume of 0.05 ml/10 g) to the mice. […] The LD50 (50% lethal dose) of each test compound was determined by the Litchfield-Wilcoxon method.
(§2) The denominator indicates the number of mice used, and the numerator, the number of dead mice.

ICR male mice = assay: Acute toxicity (Table 6); format: in vivo; conditions: 10 days
Protocol: as §1, §2

[3] = tested on: platelet aggregation (platelet-rich plasmas (PRP) of guinea pigs); assay: Activity of inhibiting platelet aggregation in vitro, guinea pig PRP, sodium arachidonate as aggregating agent (Table 1); format: cell-based, Hartley-strain male guinea pigs; conditions: Cavia porcellus, sodium arachidonate 0.03 mM final, 37° C., final concentration, read-out: IC50 (minimum concentration of drug which showed a percent inhibition of more than 50%)
Protocol: Some 1-substituted-3-acylpyrrole derivatives and other drugs were tested for platelet aggregation inhibiting activities in vitro using platelet-rich plasmas (PRP) of man and guinea pigs. The results are shown as minimum concentration of drugs which inhibit more than 50% of platelet aggregation induced by several aggregating agents.
In experiments with PRP of guinea pigs, sodium arachidonate (final concentration 0.03 mM) was used as an aggregating agent. In experiments with human PRP, sodium arachidonate (final concentration 0.1 mM), collagan suspension (final concentration 10 μg/ml), epinephrine solution (final concentration 20 μg/ml; for secondary aggregation), an epinephrine solution (final concentration 2 μg/ml; for primary aggregation) and ADP (final concentration 5 μM) were used as aggregating agents.
In an experiment with guinea pig PRP, citrated blood (containing 0.38% sodium citrate as a final concentration) was withdrawn by cardiac puncture from Hartley-strain male guinea pigs having a body weight of 350 to 600 g. The citrated blood was centrifuged at 1,000 rpm for 10 minutes at room temperature, and the supernatant platelet suspension (PRP) was separated.
The PRP was stored at room temperature, and used as soon as possible. Those which had been stored for more than 4 hours after preparation were not used.
For each test, a drug is dissolved in dimethylsulfoxide to a concentration of 10 mg/ml, and diluted with physiological saline to form 1 ml each of solutions having a concentration of 2500 μg/ml, 1000 μg/ml, 750 μg/ml, 500 μg/ml, 250 μg/ml and 100 μg/ml. A compound having a free carboxylic acid as a residue such as indomethacine and Ibprofen was dissolved in 0.1 M NaHCO3 to form a sodium salt solution having a concentration of 10 mg/ml. Then, the solution was diluted with physiological saline in the same way as above to form a test drug solution.
Arachidonic acid (99% pure, a product of Sigma Co., Ltd.) was dissolved in 0.1 M NaHCO3, and a 3.3 mM solution of sodium arachidonate was prepared. The solution was diluted with physiological saline to a concentration of 1 mM and used in the experiments. The 3.3 mM solution was stored in a refrigerator as a stock solution, and the 1 mM solution was newly prepared from the stock solution every time it was used.
Physiological saline (50 μl) and 50 μl of the aggregating agent solution were added to 400 μl of PRP which had been pre-warmed and stirred at 37° C. in a quvett set in a holder of an aggregometer. Platelet aggregation was thus initiated, and the change of light transmittance through a stirred platelet suspension was recorded for 3 minutes by a recorder joined to the aggregometer. An increase in transmittance after 3 minutes (T0) was used as a parameter of the rate of platelet aggregation in control experiments.
To 400 μl of PRP in a quvett was added 50 μl of a test drug solution. The mixture was pre-incubated and stirred for 2 minutes at 37° C. Then 50 μl of the aggregating agent was added to drug containing PRP and again aggregation responses were recorded as increases in light transmittance after 3 minutes (T1) in the same way as in (1) above. Percent inhibition was calculated from the formula [formula]
For the above in vitro test for the inhibition of platelet aggregation, reference may be had to H. M. Davis, J. Phyllis, K. Paul and W. Terry: Thromb. Res. 11, 217-226 (1977) and R. E. Anderson and J. G. Foulks: Thromb. Haemos. 36, 343-359 (1976).

[4] = collagen 5 μg/ml, read-out: Percent inhibition of platelet aggregation, collagen
[5] = sodium arachidonate 0.03 mM, read-out: Percent inhibition of platelet aggregation, sodium arachidonate

Compound: Cc1cc(C(=O)c2ccccc2)c(C)n1CC(C)O (centres unmarked) [Compound 102, 2-(3-benzoyl-2,5-dimethylpyrrol-1-yl)-1-methylethanol]
- inhibition at 10 mg/kg [1, 4]: 79%
- inhibition at 10 mg/kg [1, 5]: 99%
- inhibition at 100 mg/kg [2, 4]: 29 to 55%
- inhibition at 100 mg/kg [2, 5]: 54 to 89%
- LD50 at 240 h (Acute toxicity (Table 6); ip, intraperitoneal): 110 mg/kg
- LD50 at 240 h (Acute toxicity (Table 6); po, peroral): > 4000 mg/kg
- LD50 at 240 h (Acute toxicity (Table 6); sc, subcutaneous): > 4000 mg/kg
- mortality (dead mice / mice used) (ICR male mice; intraperitoneal, 62.5 mg/kg): 0/5
- mortality (dead mice / mice used) (ICR male mice; intraperitoneal, 125 mg/kg): 4/5
- mortality (dead mice / mice used) (ICR male mice; intraperitoneal, 250 mg/kg): 5/5
- mortality (dead mice / mice used) (ICR male mice; intraperitoneal, 500 mg/kg): 5/5
- mortality (dead mice / mice used) (ICR male mice; peroral, 1000 mg/kg): 0/6
- mortality (dead mice / mice used) (ICR male mice; peroral, 2000 mg/kg): 0/6
- mortality (dead mice / mice used) (ICR male mice; peroral, 3000 mg/kg): 0/6
- mortality (dead mice / mice used) (ICR male mice; peroral, 4000 mg/kg): 1/6
- mortality (dead mice / mice used) (ICR male mice; subcutaneous, 4000 mg/kg): 0/5
- IC50 [3]: 5 µg/mL (≈ 19.4 µM)
